Key:
[1] = system: healthy, elderly subjects; test: Study K.241.5013: colonic transit time, elderly, 4 mg TID; format: in vivo, human; conditions: 4 mg TID oral 14 days, mean (SD)
Excerpt: (§1) The effect of cilansetron on gastric emptying time and colonic transit time has been studied in 1 clinical study in healthy young subjects and 2 studies in elderly subjects. For measurement of gastric emptying time, breath samples for the determination of the ^12C/^13C ratio were taken on the last day of each treatment period immediately after ingestion of a ^13C labeled meal. The patients' breath was collected in separate 15-minute intervals, for four hours in total. ^13CO2 measurements were performed with an isotope ratio mass spectrometer. The half-life (TK) and lag-time (Tlag), which describe the duration of gastric emptying, were used as the primary parameters to evaluate gastric emptying time. In all 3 studies, colonic transit time was measured by administration of radio-opaque markers for the last six days of each treatment period, followed by a single abdominal X-ray image at 24 hours after ingestion of the last set of markers. The numbers of markers within the colon were used to calculate segmental (right colon, left colon, and rectosigmoid) and total colonic transit time.
Studies K.241.5013 and K.241.5014 were randomized, double-blind, placebo-controlled, 2-way crossover studies in 8 healthy male and female elderly subjects, each (ITT population, aged 64-83 years in K.241.5013 and 66-84 years in K.241.5014). Elderly subjects were selected for these studies because they commonly suffer from constipation and it was of interest whether cilansetron would prolong gastrointestinal transit times in this population. Subjects received cilansetron 4 mg or placebo in Study K.241.5013 and cilansetron 8 mg or placebo in Study K.241.5014. Treatments were administered orally TID for 14 days during each period, with a 14-day washout between periods. The primary efficacy parameter was the total mean colonic transit time during each treatment and the secondary parameters were the segmental colonic transit times and the gastric emptying measurements. One-sided t-tests were used to compare efficacy parameters between the cilansetron and placebo treatments.

[2] = system: healthy, elderly subjects; test: Study K.241.5013: gastric emptying time, elderly, 4 mg TID; format: in vivo, human; conditions: 4 mg TID oral 14 days, mean (SD)
Excerpt: as §1
Studies K.241.5013 and K.241.5014 were randomized, double-blind, placebo-controlled, 2-way crossover studies in 8 healthy male and female elderly subjects, each (ITT population, aged 64-83 years in K.241.5013 and 66-84 years in K.241.5014). […]

[3] = system: diarrhea-predominant IBS subjects; test: Study S241.3.006: IBS-QOL; format: in vivo, human; conditions: for Percentage of Subjects Who Worsened from Baseline: IBS-QOL Overall Score: S241.3.006, 2 mg TID, observed value
Excerpt: Studies S24 1.3.OO6, S24 1.3.0 1 1, and S24 1.3.009 used the following efficacy measurements: • The subjects answered the following three questions with “yes” or “no” using a phone diary at the end of each week: • a) During the last week, did you experience adequate relief of your IBS symptoms, such as abdominal pain, abdominal discomfort, abnormal bowel habits? • b) During the last week, did you experience adequate relief of your abdominal pain and/or discomfort? • c) During the last week, did you experience adequate relief of your abnormal bowel habits? • The subjects rated the following symptoms using the phone diary at the end of each day: • abdominal pain/discomfort (five-point scale); • stool consistency (seven-point Bristol Stool Scale); • stool frequency (number of bowel movements each day); • urgency (five-point scale); • straining (yes or no); • feeling of incomplete defecation (yes or no); • bloating or feeling of abdominal distension (five-point scale). • In Studies S241 A006 and S241.3.009, subjects completed the IBS-QOL Survey at Baseline (Day 1) and at the end of treatment. In Study S24 1.3.0 1 1, subjects completed the IBS-QOL Survey at Baseline (Day 1), at the end of the three-month treatment period, and at the end of rerandomized treatment.
Other secondary efficacy parameters for all three studies included: • Responder rate for the weekly diary questions on adequate relief at each month, where a responder for a month (monthly responder) was defined as a subject who answered the weekly question with “yes” at least twice for that month. The responder rate was the percentage of responders within a treatment group. The all-month responder rate for the weekly diary questions on adequate relief was also evaluated, where an all-month responder was defined as a subject who answered the weekly question with “yes” at least twice for each month. The all-month responder rate was the percentage of all-month responders within a treatment group; • Adequate relief rate for the weekly diary questions was calculated for each subject as the number of weekly assessments with adequate relief (“yes”) divided by the total number of weekly assessments; • Percentage of subjects with adequate relief for the weekly diary questions at each week; • Daily diary questions regarding abdominal pain/discomfort (five-point scale), stool consistency (seven-point scale), stool frequency (number of bowel movements each day), straining (yes or no), urgency (five-point scale), feeling of incomplete evacuation (yes or no), and bloating or feeling of abdominal distention (five-point scale); • QOL data assessed by the IBS-QOL questionnaire; and • Question to determine the interruption of activities.

[4] = system: diarrhea-predominant IBS subjects; test: Study S241.3.006: safety; format: in vivo, human; conditions: for Constipation: human, in vivo, 12 weeks
Description: Safety was evaluated by physical examination, ECG, vital signs, clinical laboratory evaluations, concomitant medications, and AEs. An independent Gastrointestinal Events Review Board (GERB) was established to advise on gastrointestinal (GI) AEs during the course of the study and other safety events as considered necessary.

[5] = both, human, in vivo
Description: Diurnal variations in cilansetron pharmacokinetics have been evaluated in a randomized, double-blind, placebo-controlled, 2-way crossover study in 9 male and 9 female healthy subjects, aged 21 to 39 years. Subjects were randomized to receive 2 treatments (cilansetron 16 mg tablet and placebo) during the 2 treatment periods. During each treatment period, subjects received a single dose of their assigned treatment on the first day (Day 1), after which they received the same treatment TID for 4 days (Days 2-5). There was a 10-day washout period between treatment periods. Subjects were fasted for at least 2 hours before and following each dose, and heavy physical activity was restricted. Serial blood samples for the measurement of multiple-dose pharmacokinetics of cilansetron were collected up to 24 hours postdose on Day 5.

healthy subjects = conditions: in vivo
Description: In a randomized, double-blind, placebo-controlled, 2-way crossover study in 9 male and 9 female healthy subjects (ITT population, aged 21-39 years), subjects were randomized to receive 2 treatments (cilansetron 16 mg tablet and placebo) during the 2 treatment periods. During each treatment period, subjects received a single dose of their assigned treatment on the first day (Day 1), after which they received the same treatment TID for 4 days (Days 2-5). There was a 10-day washout period between treatment periods. Subjects were fasted for at least 2 hours before and following each dose, and heavy physical activity was restricted. Serial 12-lead ECGs was recorded up to 24 hours following dosing on Day 1 (single dose) and on the last day (Day 5) of each treatment period. Heart rate and ECG intervals (RR, PR, QRS, and QT) were measured electronically, but were manually verified and corrected if needed by the investigator. QT intervals were corrected (QTc) electronically for heart rate using the Bazett's correction. Mean and maximum QTc intervals were calculated over different time intervals postdose and were compared between treatments using an ANOVA accounting for sequence, gender, subject within sequence and gender, period, and treatment effects.

Description for cytochrome P450 enzymes: An in vitro study using human hepatic microsomes evaluated the effect of some enzyme inhibitors on the metabolism of cilansetron (100 μM).

For Cc1nccn1C[C@H]1CCc2c(c3cccc4c3n2CCC4)C1=O [Cilansetron, (R)-(−)-4,5,6,8,9,10-hexahydro-10-[(2-methyl-1H-imidazol-1-yl)methyl]-11H-pyrido-[3,2,1-jk]-carbazol-11-one], the “Transit Times, Colon Total” value [1] was 55.5 (41.3) hours, the “Transit Times, Colonic Segments Left” value [1] was 21.9 (16.0) hours and the “Transit Times, Colonic Segments Rectosigmoid” value [1] was 6.3 (8.3) hours. The “Transit Times, Colonic Segments Right” value [1] was 27.3 (29.2) hours, the “gastric emptying time Tlag” value [2] was 122 (24) min and the “gastric emptying time T½” value [2] was 183 (32) min. For the same molecule, the “Subjects worsened from Baseline, IBS-QOL Overall Score” value ([3]; Month 3) was 5%, the “Percentage of Subjects Who Worsened from Baseline: IBS-QOL Overall Score” value ([3]; Endpoint (last post-Baseline overall score)) was 6% and the “Percentage of Subjects Who Worsened from Baseline: IBS-QOL Overall Score” value ([3]; Month 3) was 5%. The “IBS-QOL body image, treatment difference” value ([3]; vs placebo) was 7.43, the “IBS-QOL dysphoria, treatment difference” value ([3]; vs placebo) was 7.34 and the “IBS-QOL food avoidance, treatment difference” value ([3]; vs placebo) was 8.92. For the same molecule, the “IBS-QOL health worry, treatment difference” value ([3]; vs placebo) was 3.21, the “IBS-QOL interference with activity, treatment difference” value ([3]; vs placebo) was 9.73 and the “IBS-QOL overall score, treatment difference in mean change from Baseline at Endpoint” value ([3]; vs placebo) was 7.37. The “IBS-QOL relationships, treatment difference” value ([3]; vs placebo) was 5.19, the “IBS-QOL sexual, treatment difference” value ([3]; vs placebo) was 5.64 and the “IBS-QOL social reaction, treatment difference” value ([3]; vs placebo) was 6.19. The “Number of subjects who died” value ([4]; 2 mg TID, 352 randomized, S241.3.006) was 0 n (%), the Constipation ([4]; female) was 23% and the Constipation ([4]; male) was 8%. The “AUC ratio 0-8 h/8-16 h” value [5] was 106 (99, 115) %, the “AUC ratio 0-8 h/16-24 h” value [5] was 110 (103, 119) % and the “AUC ratio 8-16 h/16-24 h” value [5] was 104 (96, 111) %. The “Cmax ratio 0-8 h/8-16 h” value [5] was 130 (111, 153) %, the “Cmax ratio 0-8 h/16-24 h” value [5] was 133 (113, 157) % and the “Cmax ratio 8-16 h/16-24 h” value [5] was 102 (87, 120) %. For the same molecule, the “Mean Cmax higher after morning dose than mid-day and evening doses” value ([5]; 16 mg) was 30-33%, the “Inhibition of any other cytochrome P450 enzyme activity” value (cytochrome P450 enzymes) was “no inhibition” and the “Effect on mean or maximum QTc interval (Bazett's correction)” value (healthy subjects) was “no effect”.

Reference: patent US20090176817A1, “Method of Treatment of Diarrhea-Predominant Irritable Bowel Syndrome in a Subject” (priority 2005, published 2009)
